Legend:
neural precursors [1] = assay: Kinase inhibitor library screening for sustaining neural precursor proliferation (Ki67, EdU incorporation); type: cell-based, human; details: SA001-derived neural precursors, N2B27 without growth factors, day 7, compared to DMSO-treated cells
Procedure: Cells were fixed with 4% PFA for 15 min at 4° C. then permeabilized using a PBS/0.3% Triton X100 solution, 10 min at RT. Incubation with primary antibodies was performed. AlexaFluor secondary antibodies and DAPI counterstaining were applied for 1 h at room temperature. Detection was performed using a Zeiss Inverted microscope or the Arrayscan automated microscope.
A homogeneous population of neural precursors was produced after conversion of SA001 PSC line into neural cells and further amplification using EFB medium until passage 8. The stable neural precursors were seeded in 384 well-plates using Agilent BRAVO automate in N2B27 without growth factors. Six hours post-seeding, cells were treated with Enzo Life Sciences Kinase inhibitors library (BML-2832), a collection of 80 different kinase inhibitors. Another treatment was performed at day 4 and the percentage of proliferative precursors was quantified at day 7 using Ki67 and EdU incorporation. SOX2 was used as a neural marker.

neural precursors [2] = assay: Terminal differentiation into neurons of amplified neural precursors; type: cell-based, human; details: amplified for 5 passages, compared to EFB medium
Text: Terminal differentiation into neurons was induced by plating neural precursors on poly-ornithin/laminin at a density of 50,000 cells/cm^2 in N2B27 medium. Medium was changed every 4 days.
We next measured the ability of neural precursors amplified using the PKA inhibitor HA1004 for 5 passages to produce neurons. This was compared to the production of neurons obtained from precursor amplified using EFB medium as a reference.

Row | SMILES | neural precursor self-renewal (percentage of Ki67 positive cells) (neural precursors [1]) | ability of amplified neural precursors to produce neurons (neural precursors [2])
1 | CC1CNCCN1S(=O)(=O)c1cccc2cnccc12 (centres unmarked) [H7] | sustained neural precursor self-renewal | –
2 | CNCCNS(=O)(=O)c1cccc2cnccc12 [H8] | sustained neural precursor self-renewal | –
3 | NCCNS(=O)(=O)c1cccc2cnccc12 [H9] | sustained neural precursor self-renewal | –
4 | Cl.N=C(N)NCCNS(=O)(=O)c1cccc2cnccc12 [HA1004, N-(2′-Guanidinoethyl)-5-isoquinolinesulfonamide.HCl] | – | did not impact on their ability to produce neurons
5 | O=S(=O)(c1cccc2cnccc12)N1CCCNCC1 [HA1077] | sustained neural precursor self-renewal | –

Reference: patent US20160053226A1, “Method and Medium for Amplifying Neural Precursor Cells” (INSERM (INSTITUT NATIONAL DE LA SANTÉ ET DE LA RECHERCHE …, priority 2013, published 2016)
